From ChEMBL document CHEMBL3808363, “2-(Thienothiazolylimino)-1,3-thiazolidin-4-ones inhibit cell division cycle 25 A phosphatase” (Bioorg Med Chem, 2016) come the findings set out here.

Molecules are shown by their SMILES. Active and inactive are the calls of the source. The rule behind the calls is not given here. Some results are limits rather than exact numbers.

For assay [1], the target named is T1, M-phase inducer phosphatase 3 (Homo sapiens) (UniProt P30307).
T1 sequence (whole entry): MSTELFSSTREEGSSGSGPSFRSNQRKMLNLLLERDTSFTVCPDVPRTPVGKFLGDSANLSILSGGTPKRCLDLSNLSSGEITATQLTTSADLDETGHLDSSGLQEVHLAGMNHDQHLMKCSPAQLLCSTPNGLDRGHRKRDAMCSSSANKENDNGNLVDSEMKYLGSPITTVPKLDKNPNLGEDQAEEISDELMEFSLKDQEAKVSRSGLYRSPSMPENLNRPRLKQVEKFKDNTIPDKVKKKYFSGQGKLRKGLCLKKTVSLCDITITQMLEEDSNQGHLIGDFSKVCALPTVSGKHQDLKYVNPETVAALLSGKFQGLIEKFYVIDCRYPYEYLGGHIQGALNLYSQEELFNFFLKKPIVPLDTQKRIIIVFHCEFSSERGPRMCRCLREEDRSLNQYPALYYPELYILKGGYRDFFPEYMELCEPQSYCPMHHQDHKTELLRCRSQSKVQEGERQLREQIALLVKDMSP
As to the kind of experiment: Inhibition of human recombinant full length GST-tagged CDC25C transfected in Escherichia coli BL21-DE3 using 3-O-methylfluorescein phosphate as substrate at 10 uM incubated for 20 mins followed by substrate addition measured every 10 mins for 2 hrs by fluorimetric assay.

Another assay deals with HT-29. As to the kind of experiment: Cytotoxicity against human HT-29 cells assessed as inhibition of cell growth after 72 hrs by MTT assay. The class given is functional, cell-based. Particulars: HT-29, 72 h.
The target of assay [2] is T2, M-phase inducer phosphatase 1 (Homo sapiens) (UniProt P30304).
T2 sequence (whole entry): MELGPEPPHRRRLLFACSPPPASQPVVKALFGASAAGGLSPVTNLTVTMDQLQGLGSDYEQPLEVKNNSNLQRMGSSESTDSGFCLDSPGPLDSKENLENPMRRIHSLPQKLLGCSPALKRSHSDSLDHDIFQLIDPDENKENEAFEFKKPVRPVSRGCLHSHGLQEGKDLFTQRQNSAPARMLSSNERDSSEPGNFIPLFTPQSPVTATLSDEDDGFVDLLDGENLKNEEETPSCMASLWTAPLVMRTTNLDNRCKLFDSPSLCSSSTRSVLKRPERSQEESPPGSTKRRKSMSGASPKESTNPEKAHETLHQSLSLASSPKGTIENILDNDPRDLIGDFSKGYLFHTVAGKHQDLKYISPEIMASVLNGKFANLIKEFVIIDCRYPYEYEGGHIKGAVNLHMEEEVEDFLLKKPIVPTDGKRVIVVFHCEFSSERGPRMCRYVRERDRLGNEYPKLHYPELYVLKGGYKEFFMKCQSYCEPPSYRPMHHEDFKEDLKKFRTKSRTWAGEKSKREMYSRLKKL
The assay is described as follows: Inhibition of human recombinant full length GST-tagged CDC25A transfected in Escherichia coli BL21-DE3 using 3-O-methylfluorescein phosphate as substrate at 10 uM incubated for 20 mins followed by substrate addition measured every 10 mins for 2 hrs by fluorimetric assay.

Assay [3] has as its system MCF7. The assay is described as follows: Cytotoxicity against human MCF7 cells assessed as inhibition of cell growth after 72 hrs by MTT assay. The class given is functional, cell-based. Particulars: MCF7, 72 h.
Assay [4] relates to MDA-MB-231. The assay is described as follows: Cytotoxicity against human MDA-MB-231 cells assessed as inhibition of cell growth after 72 hrs by MTT assay. The note with it: MDA-MB-231, 72 h. Format: functional, cell-based. (In general: Tetrazolium dyes change colour on reduction, which living cells bring about.)
The target in assay [5] is T3, M-phase inducer phosphatase 2 (Homo sapiens) (UniProt P30305).
T3 sequence (whole entry): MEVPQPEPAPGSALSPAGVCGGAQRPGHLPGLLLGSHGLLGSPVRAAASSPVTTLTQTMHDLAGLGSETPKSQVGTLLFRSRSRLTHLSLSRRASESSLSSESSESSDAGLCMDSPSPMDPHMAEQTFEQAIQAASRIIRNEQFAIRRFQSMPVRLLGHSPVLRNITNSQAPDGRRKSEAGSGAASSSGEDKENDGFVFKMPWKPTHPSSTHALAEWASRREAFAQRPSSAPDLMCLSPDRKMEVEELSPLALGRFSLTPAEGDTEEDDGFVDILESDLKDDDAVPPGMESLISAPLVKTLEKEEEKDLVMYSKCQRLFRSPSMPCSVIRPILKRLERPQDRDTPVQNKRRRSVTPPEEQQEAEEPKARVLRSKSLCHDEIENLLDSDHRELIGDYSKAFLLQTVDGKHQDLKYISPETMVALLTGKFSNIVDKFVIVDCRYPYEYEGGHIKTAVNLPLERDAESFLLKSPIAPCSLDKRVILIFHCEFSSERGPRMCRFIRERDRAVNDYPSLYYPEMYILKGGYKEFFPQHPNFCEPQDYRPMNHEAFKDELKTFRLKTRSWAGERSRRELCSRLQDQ
The assay is described as follows: Inhibition of human recombinant GST-tagged CDC25B catalytic domain transfected in Escherichia coli BL21-DE3 using 3-O-methylfluorescein phosphate as substrate at 10 uM incubated for 20 mins followed by substrate addition measured every 10 mins for 2 hrs by fluorimetric assay.

A short description of assay [6]: Cytotoxicity against human HCT116 cells assessed as inhibition of cell growth after 72 hrs by MTT assay. Particulars: HCT-116, 72 h. Format: functional, cell-based.
Assay [7] concerns the target T2, M-phase inducer phosphatase 1 (Homo sapiens). As to the kind of experiment: Inhibition of human recombinant full length GST-tagged CDC25A transfected in Escherichia coli BL21-DE3 using 3-O-methylfluorescein phosphate as substrate at 10 uM incubated for 20 mins followed by substrate addition measured every 10 mins for 2 hrs by fluorimetric assay in presence of 0.05% triton X 100.

Assay [8] has the same target. The assay is described as follows: Inhibition of human recombinant full length GST-tagged CDC25A transfected in Escherichia coli BL21-DE3 using 3-O-methylfluorescein phosphate as substrate at 10 uM incubated for 20 mins followed by substrate addition measured every 10 mins for 2 hrs by fluorimetric assay in presence of 0.01% triton X 100.
For assay [9] the target is unchanged. The assay is described as follows: Inhibition of human recombinant full length GST-tagged CDC25A transfected in Escherichia coli BL21-DE3 using 3-O-methylfluorescein phosphate as substrate at 10 uM incubated for 20 mins followed by substrate addition measured every 10 mins for 2 hrs by fluorimetric assay in presence of 0.1% triton X 100.
Assay [10] shares this target. The assay is described as follows: Inhibition of human recombinant full length GST-tagged CDC25A transfected in Escherichia coli BL21-DE3 using 3-O-methylfluorescein phosphate as substrate at 10 uM incubated for 20 mins followed by substrate addition measured every 10 mins for 2 hrs by fluorimetric assay in presence of 0.5% triton X 100.
Assay [11] has the same target. As to the kind of experiment: Inhibition of human recombinant full length GST-tagged CDC25A transfected in Escherichia coli BL21-DE3 using 3-O-methylfluorescein phosphate as substrate at 10 uM incubated for 20 mins followed by substrate addition measured every 10 mins for 2 hrs by fluorimetric assay in presence of 0.025% triton X 100.
The target is the same in assay [12]. As to the kind of experiment: Inhibition of human recombinant full length GST-tagged CDC25A transfected in Escherichia coli BL21-DE3 using 3-O-methylfluorescein phosphate as substrate at 10 uM incubated for 20 mins followed by substrate addition measured every 10 mins for 2 hrs by fluorimetric assay in presence of 0.1% BSA.
Assay [13] addresses T4, M-phase inducer phosphatase 1 (Homo sapiens, UniProt P30304).
T4 sequence (P30304 whole entry): T2 sequence (whole entry)
As to the kind of experiment: Inhibition of human recombinant full length GST-tagged CDC25A transfected in Escherichia coli BL21-DE3 using 3-O-methylfluorescein phosphate as substrate incubated for 20 mins followed by substrate addition measured every 10 mins for 2 hrs by fluorimetric assay.

The target in assay [14] is T2, M-phase inducer phosphatase 1 (Homo sapiens). As to the kind of experiment: Reversible binding affinity to human recombinant full length GST-tagged CDC25A transfected in Escherichia coli BL21-DE3 after 1 hr by MALDI-TOF mass spectrometry.
Assay [15] deals with MCF7. As to the kind of experiment: Cytotoxicity against human MCF7 cells assessed as inhibition of cell growth at IC50 concentration after 72 hrs by trypan blue assay. The class given is functional.
Assay [16] has as its system MDA-MB-231. As to the kind of experiment: Cytotoxicity against human MDA-MB-231 cells assessed as inhibition of cell growth at IC50 concentration after 72 hrs by trypan blue assay. The class given is functional.
For assay [17], the system named is MDA-MB-231. The assay is described as follows: Cytotoxicity against human MDA-MB-231 cells assessed as cell growth at IC50 concentration after 72 hrs by trypan blue assay. The class given is functional.
The subject of assay [18] is MCF7. The assay is described as follows: Cytotoxicity against human MCF7 cells assessed as cell growth at IC50 concentration after 72 hrs by trypan blue assay. The class given is functional.

As usually defined, the inhibition is the change of the read-out against control, counted positive when it falls. By IC50 is commonly meant the concentration needed to halve the response being measured. With `O=C1CS/C(=N\c2nc3cc(-c4ccc(Cl)cc4)sc3s2)N1`, the inhibition in assay [1] was determined as 16.4%; in assay [2], 6.8%; in assay [5], 21.6%. Also, the IC50 in the assay with HT-29 came out at 13.6 µM; with MCF7 [3], 12.4 µM; with MDA-MB-231 [4], 18.8 µM; in [6], 14.5 µM.
Turning to `O=C1C=CC(=O)c2ccccc21`, the inhibition turned out to be 26.5% in assay [7]; 99.2% in [1]; 20.6% in assay [8]; 24.7% in assay [9]; 79.7% in [2]; 26.3% in assay [10]. For the same molecule, the inhibition turned out to be 71.2% in [5], 18.6% in assay [11] and 20.3% in [12].
For the molecule `Cc1ccc(/C=C2/S/C(=N\c3nc4cc(-c5ccc(Cl)cc5)sc4s3)NC2=O)cc1`, the inhibition in assay [1] was 23.3%; in [2] it was 68.1%; in assay [5], 24.2%. For the same molecule, the IC50 in [13] worked out at 8.3 µM; in the assay on HT-29, 45.5 µM; in the assay on MCF7 [3], 3.3 µM; in the assay on MDA-MB-231 [4], 22.8 µM. In [14], the result was Active. In the assay on MCF7 [15], the “growth inhibition (GI)” value was “inactive”. In the assay on MDA-MB-231 [16], the “growth inhibition (GI)” value is listed as 70%.
Regarding `O=C1N/C(=N/c2nc3cc(-c4ccc(Cl)cc4)sc3s2)S/C1=C/c1ccc(F)cc1`, the inhibition in assay [1] amounted to 15.5%; in [2], 65.6%; in assay [5] it was 35.4%. The IC50 is 7.8 µM in assay [13], > 50 µM with HT-29, 21 µM in the assay on MCF7 [3] and 24.7 µM with MDA-MB-231 [4]. For the same molecule, the outcome in assay [14] was Active. Besides, the “growth inhibition (GI)” value stood at 60% in the assay with MCF7 [15] and 30% in the assay on MDA-MB-231 [16].
Turning to `O=C1N/C(=N/c2nc3cc(-c4ccc(Br)cc4)sc3s2)S/C1=C/c1ccc(Cl)cc1`, the inhibition in [1] is 6.1%; in [2], 28.4%; in assay [5], 3.8%. The IC50 with HT-29 worked out at 15.2 µM; in the assay with MCF7 [3], 11 µM; in the assay on MDA-MB-231 [4] it was 22.3 µM; in [6], 15.5 µM. The “growth inhibition (GI)” value in the assay with MCF7 [15] is 25%; with MDA-MB-231 [16], 35%.
As for `O=C1CS/C(=N\c2nc3cc(-c4ccc(Cl)cc4)[se]c3s2)N1`, the figures for the inhibition in assay [1], in assay [2] and in assay [5] were 15.6%, 4.2% and 17.4%, respectively. Besides, the IC50 in the assay on HT-29 stood at 42.4 µM; in the assay on MCF7 [3], 21.8 µM; in the assay on MDA-MB-231 [4] it was 35.6 µM; in [6] it was 43.8 µM.
Regarding `O=C1N/C(=N/c2nc3cc(-c4ccc(Cl)cc4)sc3s2)S/C1=C/c1ccc2ccccc2c1`, the inhibition in assay [1] is 22.6%; in assay [2] it was 67%; in assay [5] it was 27.3%. Besides, the IC50 is 7.3 µM in assay [13], > 50 µM in the assay with HT-29, 15.2 µM in the assay on MCF7 [3] and > 50 µM in the assay on MDA-MB-231 [4]. For the same molecule, in assay [14], the outcome was Active. For the same molecule, the Activity with MDA-MB-231 [17] and with MCF7 [18] was >80% each time.
As for `CN(C)c1ccc(/C=C2/S/C(=N\c3nc4cc(-c5ccc(Cl)cc5)sc4s3)NC2=O)cc1`, the IC50 in the assay on HT-29 and with MCF7 [3] was > 50 µM throughout.
Take `O=C1N/C(=N/c2nc3cc(-c4ccc(Cl)cc4)sc3s2)S/C1=C/c1ccc(Cl)cc1`: the IC50 in the assay on HT-29 and in the assay on MCF7 [3] was > 50 µM each time.
